Reference: US20240294465A1, “NOVEL ANTI-FIBROTIC DRUGS” (HELMHOLTZ ZENTRUM MUNCHEN - DEUTSCHES FORSCHUNGSZENTRUM FUR …, priority 2021, published 2024)
Entries after “also recorded” stand apart in the source; their conditions may differ.

Experiments:
[1] = tested on: ECM deposition of collagen I, collagen V and fibulin 1 by phLFs+TGFβ1; test: 3D ECM deposition assay (collagen I, collagen V, fibulin 1), dose-response and live imaging; format: cell-based, human; conditions: phLFs+TGFβ1, during 48 hours
Protocol: phLFs were cultured in DMEM F-12 medium with 20% fetal bovine serum (FBS) and antibiotic supplement as mentioned above. Cells were seeded with 6000 cells/well in 384-well CellCarrier plates (Perkin Elmer, Cat #6007550). Following overnight incubation, cells were starved in serum-reduced medium (1% FBS with 0.1 mM 2-phosphoascorbate (Sigma, Cat #49752)) for 24 h. Afterwards, cells were treated with TGFβ1 (1 ng/ml) or vehicle, and additionally small molecules or appropriate vehicle controls were added. […] Fluorescenceconjugation of the collagen type 1 antibody was done by using the AlexaFluor-555 Protein Labeling Kit (Invitrogen, Cat #A20174) according to manufacturer's instructions. […]
Following fixation, the automated imaging was achieved by using aconfocal laser scanning microscope (LSM710, Zeiss) with automated focus detection for three-dimensional image acquisition (1024 px×1024 px×9 px which equals a dimension of 1417 μm×1417 μm×16 μm). For post-acquisition analysis images were imported into IMARIS software (Bitplane) and volume detection or alternatively quantification of the mean fluorescence intensity, as well as Hoechst-stained cell nuclei were automatically counted by using Imaris' spot detection algorithm. […]

phLFs = test: Cytotoxicity assays (MTT, live/dead calcein, caspase 3/7); format: cell-based; conditions: confluent phLFs+TGFβ1
Text: Viability/Cytotoxicity Assay Kit for Animal Live and Dead Cells was obtained from Biotium, Cat. No. 3002). CellEvent™ Caspase 3/7 Green Detection Reagent was acquired from Invitrogen, Cat. No. C10423. For MTT-assays, Thiazolyl Blue Tetrazolium was bought from SigmaAldrich (M5655-1G). All these kits and assays were used according to the manufacturer's instructions.

[2] = tested on: cell shape, microtubules and actin of phLFs; test: Fluorescence microscopy of cell morphology and cytoskeleton (α-Tubulin, phalloidin, calcein); format: cell-based, human
Text: FIG. 14: Dose-response relationships of N23Ps, live imaging of ECM deposition and cell-morphology switch. (A) Structural formula for Tranilast and N23Ps (example 84 and example 85) indicating 2-butoxy-substitution at R1 and IC50 values. […] Cell nuclei in blue (HOECHST). Scale bar=500 μm. […] Cell nuclei were stained by Hoechst (blue). Scale bar=50 μm. (F) Confocal images of subconfluent phLFs+TGFβ1 stained for Hoechst (blue), calcein (green) and phalloidin (red) showing round cell morphologies after treatment with example 84 as well as extensive actin cytoskeletal rearrangements (red). […] Scale bar=500 μm. Data are presented as means t SEM. Differences between groups were evaluated with paired t-tests. * p<0.05. n=3 (three different patient phLFs).
FIG. 16: (A) Fluorescence wide-field microscopy images (10× objective in low magnification and resolution) of phLFs treated with 5 μM DMSO, 50 μM example 84 and 100 μM Tranilast, and stained for Hoechst (blue), α-Tubulin (green) and filamentous actin (red, Phalloidin). […] Scale bar=100 μm. (B) Fluorescence wide-field microscopy images (63× objective in high magnification and resolution) of phLFs treated with either 5 μM DMSO or 50 μM example 84, and stained for Hoechst (blue), a.-Tubulin (green) and filamentous actin (red, Phalloidin). […] Scale bar=[…]. iPSC=induced pluripotent stem cells. […] Scale bar=350 μm. […] Thus, the compounds of the present invention show similar effects like colchicine on microtubules (41). Therefore, the compounds of the present invention are also for use in the treatment of inflammatory diseases such as arthrolithiasis, familiar mediterranean fever and pericarditis amongst others by the inhibition of polymorphonuclear leukocyte and macrophage motility as well as intracellular vesicular transport mechanisms.
For standard immunofluorescence staining, 5000 phLFs were seeded into 96 well imaging plates with a flat bottom (Cat #353376, BD Biosciences). After incubation, cells were fixed with either 4% PFA for 30 min at 37° C. or 100% methanol for 2 min at −20° C. […]

## CCCCOc1ccccc1NC(=O)/C=C/c1ccc(OC)c(OC)c1 [Example 84, (E)-N-(2-butoxyphenyl)-3-(3,4-dimethoxyphenyl)acrylamide]
[1]
  dynamic deposition of collagen I and fibulin 1 (MFI, live imaging): inhibition of ECM deposition
phLFs
  viability (calcein staining): proving viability
[2]; b48: example 84 50 μM, Tranilast 100 μM
  cell morphology: significant changes in cell-shape and eccentricity towards round cells; also recorded: cell-shape switch towards round cell morphologies
[2]; example 84 50 μM
  actin filaments (Phalloidin): without affecting actin filaments
[2]; example 84 50 μM, Tranilast 100 μM
  microtubules (α-Tubulin staining): depolymerized, that is non-filamentous, microtubules
